Assay results from patent US20150258043A1, “USE OF SPHINGOID LONG CHAIN BASES AND THEIR ANALOGS IN TREATING AND PREVENTING BACTERIAL INFECTIONS” (YEDA RESEARCH AND DEVELOPMENT CO. LTD., priority 2012, published 2015).
Entries after “also recorded” stand apart in the source; their conditions may differ.

Tests used:
P. aeruginosa = assay: Sytox green staining (membrane permeabilization of bacteria); assay type: cell-based, Pseudomonas aeruginosa; conditions: 50 μM in 1% DMSO, 30 min
Description: FIGS. 4A-D. The ceramide/sphingosine ratio regulates P. aeruginosa growth. (A) Representative image of two independent experiments (left hand panel) after addition of Sytox green (1 μM) for 30 min in the absence or presence of 50 μM sphingosine or 50 μM C16-ceramide (C16-Cer) in 1% DMSO. Fluorescent and thus permeabilised bacteria were quantified (right hand panel). (B-D) The inhibitory effect of sphingosine on the growth of P. aeruginosa strain 762 is decreased in vitro and in vivo by C16-ceramide. (B) Bacteria were incubated with 10 μM sphingosine, and increasing concentrations of C16-ceramide, and growth was determined by counting colony forming unit (CFU) after 24 hrs growth on LB agar plates. Number of bacteria in the lung (C) and sickness score (D) of CF mice or WT mice inhaled with either sphingosine or a combination of sphingosine and C16-ceramide 1 h before (b.i.) with 10^8 P. aeruginosa CFU strain 762. Data are means±s.d., n=3 in (A,B) and n=4 in (C,D).
Bacteria at early logarithmic phase were incubated in the presence or absence of sphingosine or C16-ceramide (C16-cer) (50 μM in 1% DMSO) for 30 minutes at 37° C. […] Sample were examined under fluorescence microscope, and bacteria were counted both in bright field and under green fluorescent filter in two independent experiments.

[1] = system: P. aeruginosa strains 762, PA14 and ATCC 27853; assay: Pulmonary P. aeruginosa infection of CF and CerS2 null mice, inhalation treatment (bacteria in lung, sickness score); assay type: in vivo, mouse; conditions: CF and CerS2 null mice; inhalation (125 μM) 1 h before or 1 h after intranasal infection with 1×10^8 CFU
Description: (A,B) The number of bacteria in the lungs and the overall sickness score (C,D) of WT, CerS2 null and CF mice 3-4 h after intranasal infection with 1×10^8 CFU of P. aeruginosa strains 762 (A,C) and CF mice with strains PA14 and ATCC 27853. Mice were inhaled with 0.9% NaCl or acid ceramidase 1 h prior (b.i.) to infection, or with sphingosine or FTY720 1 h before (b.i.) or 1 h after (a.i.) infection. Sickness score 4, severely affected (unresponsive animal); score 3 affected, (heavy breathing, low body temperature, ruffled fur) score 2, moderately affected (ruffled fur, heavy breathing); score 1, slightly affected (ruffled fur); score 0, unaffected (healthy appearance). Data are means±s.d., n=4.
Pulmonary infection of CF or CerS2 mice was achieved by intranasal application of P. aeruginosa strains 762, ATCC 27853 or PA14. Mice inhaled acid ceramidase, sphingosine, FTY720 or a combination of sphingosine and ceramide 1 hr before or after pulmonary infection. The number of bacteria in the lung was determined by culturing aliquots of lysed lungs on agar plates. Clinical symptoms of the infection were scored.
Inhalation was performed with a PARI Boy SX nebulizer (PARI GmbH, Starnberg, Germany). This nebulizer generates a fine aerosol mist by pumping the fluid with an air jet. The mice inhaled the aerosol via a mask that is part of an oral inhalation device for children (LL-Nebulizer); the mask was clipped at the sides to cover only the mouse's nose and the surrounding part of the face. […]
P. aeruginosa were grown for 14 to 14.5 h on fresh tryptic soy agar (TSA) plates (Becton Dickinson Biosciences, Germany). […] The bacterial OD was determined, and the bacteria were diluted in prewarmed H/S to a concentration of 1×10^8 CFU per 20 μL. […]
Lungs were removed, homogenised and lysed for 10 min in 5 mg/ml saponin to release intracellular bacteria. […] Bacterial counts (CFU) were counted after 18 h.

`CCCCCCCCCCCCC/C=C/[C@@H](O)[C@@H](N)CO` (stereo in doubt) [D-erythro-Sphingosine, (2S,3R)-2-aminooctadec-4-ene-1,3-diol] was tested, and the “Sytox green fluorescence of bacteria” value (P. aeruginosa) was “large increase in fluorescence” and the “protection from pulmonary P. aeruginosa infection” value [1] was “completely protected CF and CerS2 null mice from P. aeruginosa infection and even eliminated an existing infection; also recorded: rescue CF and CerS2 null mice from pulmonary P. aeruginosa infection; also recorded: prevents pulmonary P. aeruginosa infection”.
